From US7667031B2, “Nucleic acid base pair” (Japan Science and Technology Agency, priority 1999, dated 2010)
Several values for one entry are separate records, joined by “and”; a condition that tells them apart may be missing. Identical values can stand only once.

Experiments:
T7 RNA polymerase [1] = target: T1, T7 RNA polymerase (Escherichia phage T7, UniProt P00573); assay: Transcription by T7 RNA polymerase in presence of rNTP, RNase T2 digestion, 2-dimension TLC (templates 1 and 3); format: biochemical; details: for Template 1 (N = A) Measured Value / Template 3 (N = X) Measured Value: rATP, rGTP, rCTP, UTP 2 mM, rYTP 1 mM, nucleotide composition by 2-dimension TLC
Method: Transcription reaction in the presence of rNTP was conducted. […] ATP under the condition of rATP 2 mM, rGTP 2 mM, rCTP 2 mM, UTP 2 mM, and rYTP 1 mM, then generated full length of RNA was digested completely by RNase T2, nucleotide labeled at 3′-terminal was analyzed by 2-dimension TLC. Outline of this experiment is shown as follows.
Reaction was performed as same as in example 8. The generated RNA was isolated by gel electrophoresis. RNA was digested by 0.75 units RNase T2. Each nucleotide was separated using 2-dimension TLC and each ratio was calculated.

T7 RNA polymerase [2] = target: T1, T7 RNA polymerase; assay: Transcription by T7 RNA polymerase, gel electrophoresis of generated RNA; format: biochemical; details: for incorporation in transcription opposite G (FIG. 10): template 2 (N=G); for incorporation into the complementary strand of A in transcription (FIG. 10): template 1 (N=A); for incorporation to X in transcription (FIG. 10): template 3 (N=X)
Method: Similarly, a transcription reaction by RNA polymerase using DNA containing X as template was examined. Using template 1-3, promoter region on this strand was duplicated, and the transcription reaction was examined using T7 RNA polymerase by adding [α-^32P] ATP.
Template DNA 1 μM, in which promoter region has duplicated strands, and T7 RNA polymerase 2.5 units were added to a solution containing 2 mM rNTP, [α-^32P] […] The product was analyzed.

Klenow fragment [3] = target: T2, Klenow fragment (Escherichia coli, UniProt P00582); assay: Primer extension reaction by Klenow fragment; format: biochemical, E. coli; parameters: Klenow fragment, which is deleted 5′-exonuclease from DNA polymerase I; purchased TAKARA; details: 17° C.; for incorporation to the complementary strand X (primer extension, FIG. 6): template 3 1 μM
From the text: In order to examine formation of selective novel nucleic acid base pair by utilizing steric hindrance in the base pair X-Y, primer extension method of DNA and transcriptional reaction synthesizing RNA from DNA were applied. The primer extension method includes annealing template DNA oligomer with a primer oligomer, and adding DNA polymerase and 2′-deoxynucleotide-5′-triphosphate (dNTP) to extend complementary sequence of the template at 3′-terminal of the primer. Klenow fragment, which is deleted 5′-exonuclease from DNA polymerase I, one of DNA polymerase originated from E. coli, and T7 RNA polymerase, RNA polymerase originated from T7 phage, were herein used. Both enzymes are commonly used at present.
5′-terminal of the primer was labeled with ^32P using T4 polynucleotide kinase and […]. Primer labeled with ^32P (0.5 μM) and template 1 and 3 (1 μM) and various dNTP (150 μM), wherein N means base, were used for primer extension by Klenow fragment (0.2 unit/μl) at 17° C. for 30 minutes.
The thus obtained product was electrophoresed using 20% polyacrylamide 7M urea gel and analyzed by using imaging plate (Phosphoroimager analysis). In FIG. 6, left five, i.e. AG, AGC, AGT, AGY and AGCT, indicates cases using template 1, and right five indicates cases using template 3.
In order to search effect of incorporation of Y, C and T into the complementary strand of X, when two X are presented on the template, ^32P labeled primer 3 at 5′-terminal and template 4, 5, 6, 7, 8 and 9 were used for primer extension method.
5′-^32P labeled primer, template and 10× Klenow fragment buffer (TAKARA) 1 μl were added to the 0.5 ml tube, adjusted total volume to 7 μl, and annealed at 95° C. for 3 minutes, at 40° C. for 3 minutes and at 4° C. for 7 minutes. dNTP 1 μl, Klenow fragment (1 unit/ml, For Sequencing, TAKARA) 2 μl were added, adjusted to total volume to 10 μl and incubated for the fixed time at 17° C. The reaction was terminated by adding 10 M urea BPB dye 5 μl, heated at 75° C. for 5 minutes, and electrophoresed with 20% polyacrylamide gel with 7M urea gel electrophoresis. The result was analyzed using imaging plates (Phosphoroimager analysis). Single nucleotide insertion reaction is shown in FIG. 7 and primer extension reaction is shown in FIG. 6 and FIG. 9, respectively.

Klenow fragment [4] = target: T2, Klenow fragment; assay: Single nucleotide insertion reaction by Klenow fragment; format: biochemical, E. coli; parameters: Klenow fragment, which is deleted 5′-exonuclease from DNA polymerase I; purchased TAKARA; details: primer 2 1 μM, only one dNTP 159 μM, 17° C., 30 minutes; for incorporated into complementary strand of X: template 3 2 μM
Method: For quantitative analysis of the incorporation, same experiments were conducted by adding only DNTP (159 μM) using primer 2 (1 μM) labeled with p32 at 5′-terminal and template 1, 2 and 3 (2 μM).
The result was analyzed using imaging plates (Phosphoroimager analysis). Single nucleotide insertion reaction is shown in FIG. 7 and primer extension reaction is shown in FIG. 6 and FIG. 9, respectively.

Klenow fragment (exo+) = target: T3, Klenow fragment (exo+) (Escherichia coli, UniProt P00582); assay: Single nucleotide insertion reaction using Klenow fragment (exo+); format: biochemical, E. coli; details: 3 minutes; for rate of incorporation on dx2: template N = X2, 37° C.
T3 construct: Klenow fragment, which is deleted 5′-exonuclease from DNA polymerase I; purchased TAKARA
Method: Using Klenow fragment (exo^+), incorporation of dYTP on dx2 in the template (refer to example 10).
In the template, a position indicated by N was bound with base X or base X2 (for experimental) or base A (for control), and incorporation experiments of various bases were conducted. Results are shown in FIG. 12, in which lanes 1 and 2 indicate control experiments for incorporation of cytosine (C) and thymine (T) on adenine (A).
A solution containing [5′-^32P] labeled primer DNA (20-mer, […]), template DNA (35-mer, […]) and 2× Klenow fragment buffer (TAKARA) were annealed at 95° C. for 3 minutes, 40° C. for 3 minutes and 4° C. for 7 minutes. A solution of equimolar amount of 40 mM dNTP and Klenow fragment (exo^+) (2 unit/ml, For Sequencing, TAKARA) were added thereto and incubated at 37° C. for 3 minutes. […] Products were analyzed by using Phosphoroimager plate.

Klenow fragment [5] = target: T2, Klenow fragment; details: 17° C.
Method: Primer 2 without labeling and template 2 were annealed, and [α-^32P] TTP and various amounts of dYTP were added thereto to find out ratio of inhibition of incorporation of [α-^32P] TTP into X by dYTP was investigated. […] As a result, when dYTP was added almost equivalent level of [α-^32P] TTP, incorporation of [α-^32P]
Primer, template and 10× Klenow fragment buffer (TAKARA) 1 μl were added to 0.5 ml tube, and total volume was adjusted to 7 μl, and annealed at 95° C. for 3 minutes, at 40° C. for 3 minutes and at 4° C. for 7 minutes. [α-^32P] TTP or [α-^32P] dCTP and dYTP were added to final concentration for each level, and Klenow fragment (1 unit/ml, For Sequencing, TAKARA) 2 μl was added, adjusted to total volume to 10 μl and incubated for the fixed time at 17° C. The reaction was terminated by adding 10 M urea BPB dye 5 μl kept at 75° C. for 5 minutes, and electrophoresed with 20% polyacrylamide gel with 7M urea gel electrophoresis. The result was analyzed using imaging plates (Phosphoroimager analysis).

[6] = primer 1 0.5 μM, dNTP 150 μM, 30 minutes

T1 sequence (P00573 whole entry): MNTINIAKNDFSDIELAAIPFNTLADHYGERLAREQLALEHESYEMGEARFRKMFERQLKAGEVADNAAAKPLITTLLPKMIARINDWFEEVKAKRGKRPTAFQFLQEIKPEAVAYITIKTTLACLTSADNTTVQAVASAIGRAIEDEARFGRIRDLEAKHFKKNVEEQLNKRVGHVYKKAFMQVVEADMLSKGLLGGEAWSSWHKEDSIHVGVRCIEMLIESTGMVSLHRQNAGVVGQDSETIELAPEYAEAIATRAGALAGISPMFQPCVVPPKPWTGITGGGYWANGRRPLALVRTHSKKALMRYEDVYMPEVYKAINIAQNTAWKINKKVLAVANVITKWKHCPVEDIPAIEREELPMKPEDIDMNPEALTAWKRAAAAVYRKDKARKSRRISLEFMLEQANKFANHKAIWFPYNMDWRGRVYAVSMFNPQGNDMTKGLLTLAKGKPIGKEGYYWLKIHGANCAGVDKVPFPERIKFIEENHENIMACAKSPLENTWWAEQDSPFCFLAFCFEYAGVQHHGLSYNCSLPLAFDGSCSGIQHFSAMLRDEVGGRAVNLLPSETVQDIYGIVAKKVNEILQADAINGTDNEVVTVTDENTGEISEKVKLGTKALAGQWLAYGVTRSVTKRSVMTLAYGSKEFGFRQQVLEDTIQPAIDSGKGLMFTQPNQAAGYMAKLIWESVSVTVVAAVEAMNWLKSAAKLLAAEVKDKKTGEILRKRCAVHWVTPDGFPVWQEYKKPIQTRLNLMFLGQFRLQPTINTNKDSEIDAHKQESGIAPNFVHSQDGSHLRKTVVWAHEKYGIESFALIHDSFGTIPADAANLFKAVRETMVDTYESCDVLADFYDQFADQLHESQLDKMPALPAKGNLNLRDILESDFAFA
T3 sequence (P00582 324-928): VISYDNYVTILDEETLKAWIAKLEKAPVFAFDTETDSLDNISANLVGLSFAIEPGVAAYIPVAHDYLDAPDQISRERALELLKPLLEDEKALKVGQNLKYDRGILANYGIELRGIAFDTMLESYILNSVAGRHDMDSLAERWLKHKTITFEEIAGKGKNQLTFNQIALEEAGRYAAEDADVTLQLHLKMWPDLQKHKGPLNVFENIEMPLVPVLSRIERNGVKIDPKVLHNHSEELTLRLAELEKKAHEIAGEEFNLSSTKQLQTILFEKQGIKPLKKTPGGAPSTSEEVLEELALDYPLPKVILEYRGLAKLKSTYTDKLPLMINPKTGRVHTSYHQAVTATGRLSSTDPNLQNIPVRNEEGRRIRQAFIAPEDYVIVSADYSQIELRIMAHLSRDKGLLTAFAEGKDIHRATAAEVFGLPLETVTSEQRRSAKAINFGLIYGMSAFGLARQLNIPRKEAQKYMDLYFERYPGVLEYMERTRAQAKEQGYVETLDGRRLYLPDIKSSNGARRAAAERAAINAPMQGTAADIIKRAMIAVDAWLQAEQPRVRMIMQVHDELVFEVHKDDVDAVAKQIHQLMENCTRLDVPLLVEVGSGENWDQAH
T2 sequence (P00582 324-928): as above

Q: `Nc1ncnc2c1ncn2[C@@H]1O[C@H](CO)[C@@H](OP(=O)(O)O)[C@H]1O` [Ap] was tested. Which “Template 1 (N = A) Measured Value” (T7 RNA polymerase [1]) did it give?
A: 0.92

Q: And the “Template 3 (N = X) Measured Value” (T7 RNA polymerase [1])?
A: 1.05

Q: With `Nc1cc[nH]c(=O)n1` [C, cytosine] as the compound, how does the “incorporation in transcription opposite G (FIG. 10)” value (T7 RNA polymerase [2]) read?
A: only C was incorporated

Q: And the “incorporation to the complementary strand X (primer extension, FIG. 6)” value (Klenow fragment [3]; [6])?
A: incorporated

Q: And the “incorporated into complementary strand of X” value (Klenow fragment [4])?
A: 9.5%

Q: Which “Template 1 (N = A) Measured Value” (T7 RNA polymerase [1]) does the source give for `Nc1ccn([C@@H]2O[C@H](CO)[C@@H](OP(=O)(O)O)[C@H]2O)c(=O)n1` [Cp] here?
A: 0.78

Q: And the “Template 3 (N = X) Measured Value” (T7 RNA polymerase [1])?
A: 0.94

Q: How did the “Template 1 (N = A) Measured Value” (T7 RNA polymerase [1]) turn out when `Nc1nc2c(ncn2[C@@H]2O[C@H](CO)[C@@H](OP(=O)(O)O)[C@H]2O)c(=O)[nH]1` [Gp] was run?
A: 4

Q: What about the “Template 3 (N = X) Measured Value” (T7 RNA polymerase [1]) of the same compound?
A: 4

Q: `Cc1c[nH]c(=O)[nH]c1=O` [T, thymine] was tested. Which “incorporation to the complementary strand X (primer extension, FIG. 6)” value (Klenow fragment [3]; [6]) did it give?
A: incorporated

Q: And the “incorporated into complementary strand of X” value (Klenow fragment [4])?
A: 13%

Q: `O=c1cc[nH]c(=O)[nH]1` [U] was tested. Which “incorporation into the complementary strand of A in transcription (FIG. 10)” value (T7 RNA polymerase [2]) did it give?
A: incorporated

Q: And the “incorporation to X in transcription (FIG. 10)” value (T7 RNA polymerase [2])?
A: Trace amount

Q: What about the “incorporation in transcription reaction in the presence of rNTP” value (shortened to “incorporation in transcription reaction”) (T7 RNA polymerase [1]; template 3 (N=X)) of the same compound?
A: trace amount

Q: Which results are given for `O=c1ccn([C@@H]2O[C@H](CO)[C@@H](OP(=O)(O)O)[C@H]2O)c(=O)[nH]1` [Up]?
A: Template 1 (N = A) Measured Value (T7 RNA polymerase [1]): 0.98; Template 3 (N = X) Measured Value (T7 RNA polymerase [1]): 0.08

Q: For `O=c1cccc[nH]1` [Y, pyridine-2-one], which “incorporation into the complementary strand of A in transcription (FIG. 10)” value (T7 RNA polymerase [2]) is on record?
A: incorporated

Q: And the “incorporation in transcription opposite G (FIG. 10)” value (T7 RNA polymerase [2])?
A: almost no production

Q: What about the “incorporation to X in transcription (FIG. 10)” value (T7 RNA polymerase [2]) of the same compound?
A: selective incorporation

Q: And the “incorporation in transcription reaction” value (T7 RNA polymerase [1]; template 1 (N=A))?
A: no incorporation

Q: And the “incorporation in transcription reaction” value (T7 RNA polymerase [1]; template 3 (N=X))?
A: almost selectively incorporated

Q: What about the “incorporation into the complementary strand of the second X in the two X” value (Klenow fragment [3]; another base between two X on the template, primer 3, dNTP 150 μM, 60 minutes (FIG. 9)) of the same compound?
A: only Y was incorporated

Q: What about the “incorporation into complementary strands (primer extension, FIG. 6)” value (Klenow fragment [3]; primer 1 0.5 μM, template 1 and 3 1 μM, dNTP 150 μM, 30 minutes) of the same compound?
A: incorporated into complementary strands of A, G and X

Q: What about the “incorporated into complementary strand of A” value (Klenow fragment [4]; template 1 2 μM) of the same compound?
A: 78%

Q: And the “incorporated into complementary strand of G” value (Klenow fragment [4]; template 2 2 μM)?
A: 48%

Q: What about the “incorporated into complementary strand of X” value (Klenow fragment [4]) of the same compound?
A: 42% and 41%

Q: `Nc1ccn([C@H]2C[C@H](O)[C@@H](COP(=O)(O)OP(=O)(O)OP(=O)(O)O)O2)c(=O)n1` [dCTP] was tested. Which “rate of incorporation on dx2” value (Klenow fragment (exo+)) did it give?
A: 22%

Q: `O=c1[nH]cccc1[C@H]1C[C@H](O)[C@@H](COP(=O)(O)OP(=O)(O)OP(=O)(O)O)O1` [dYTP, 3-(2′-deoxy-5′-O-triphosphoryl-β-D-ribofuranosyl) pyridine-2-one] was tested. Which “rate of incorporation on dx2” value (Klenow fragment (exo+)) did it give?
A: 40%

Q: And the “rate of incorporation on dx” value (Klenow fragment (exo+); template N = X, 37° C.)?
A: 21%

Q: What about the “inhibition of incorporation of [α-32P] TTP into X by dYTP” value (Klenow fragment [5]; dYTP added at almost equivalent level of [α-32P] TTP, 30 minutes) of the same compound?
A: 50%

Q: And the “inhibition of incorporation of [α-32P] TTP into the complementary strand of A” value (Klenow fragment [5]; template 1, dYTP 0-1000 μM)?
A: did not inhibit

Q: And the “inhibition of incorporation of [α-32P] CTP into the complementary strand of G” value (Klenow fragment [5]; template 2, dYTP 0-1000 μM)?
A: did not inhibit
